Among the targets are Melanocortin receptor 3 (Homo sapiens, UniProt P41968); Melanocortin receptor 4 (Homo sapiens, UniProt P32245); Melanocortin receptor 5 (Homo sapiens, UniProt P33032); Cytochrome P450 2C9 (Homo sapiens, UniProt P11712); Cytochrome P450 2C19 (Homo sapiens, UniProt P33261); Cytochrome P450 2D6 (Homo sapiens, UniProt P10635); Cytochrome P450 3A4 (Homo sapiens, UniProt P08684).
For data set [1], the target named is Adrenocorticotropic hormone receptor (Homo sapiens, UniProt Q01718).
Sequence of Adrenocorticotropic hormone receptor (Q01718 whole entry): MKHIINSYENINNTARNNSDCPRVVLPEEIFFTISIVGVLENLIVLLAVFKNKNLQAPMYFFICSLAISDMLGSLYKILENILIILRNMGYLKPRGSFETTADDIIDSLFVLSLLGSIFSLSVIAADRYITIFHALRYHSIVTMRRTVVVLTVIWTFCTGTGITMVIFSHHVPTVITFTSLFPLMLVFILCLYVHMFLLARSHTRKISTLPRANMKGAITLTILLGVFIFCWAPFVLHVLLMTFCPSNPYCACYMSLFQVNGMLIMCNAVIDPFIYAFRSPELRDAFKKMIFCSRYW
Description: Displacement of [[125I]-Tyr23]-ACTH (1-39) from human MC2R incubated for 1.5 hrs by Topcount scintillation counting method
Data set [2] can be described thus: in vivo. Conditions: rat, po, 10 mg/kg.
The nature of data set [3]: in vivo. The following applies: rat, po, 10 mg/kg. This is another data set of the same source.
The target of data set [4] is Melanocyte-stimulating hormone receptor (Homo sapiens, UniProt Q01726).
Sequence of Melanocyte-stimulating hormone receptor (Q01726 whole entry): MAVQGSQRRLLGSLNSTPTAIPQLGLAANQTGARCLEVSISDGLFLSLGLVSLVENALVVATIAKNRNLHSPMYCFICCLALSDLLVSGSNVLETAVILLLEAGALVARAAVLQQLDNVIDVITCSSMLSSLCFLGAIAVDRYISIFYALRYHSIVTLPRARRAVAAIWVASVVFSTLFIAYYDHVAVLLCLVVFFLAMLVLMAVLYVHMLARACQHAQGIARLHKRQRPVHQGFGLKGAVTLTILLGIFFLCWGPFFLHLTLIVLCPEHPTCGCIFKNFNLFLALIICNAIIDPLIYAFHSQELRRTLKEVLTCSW
In data set [5] the target is 5-hydroxytryptamine receptor 1B (Homo sapiens, UniProt P28222).
Sequence of 5-hydroxytryptamine receptor 1B (P28222 whole entry): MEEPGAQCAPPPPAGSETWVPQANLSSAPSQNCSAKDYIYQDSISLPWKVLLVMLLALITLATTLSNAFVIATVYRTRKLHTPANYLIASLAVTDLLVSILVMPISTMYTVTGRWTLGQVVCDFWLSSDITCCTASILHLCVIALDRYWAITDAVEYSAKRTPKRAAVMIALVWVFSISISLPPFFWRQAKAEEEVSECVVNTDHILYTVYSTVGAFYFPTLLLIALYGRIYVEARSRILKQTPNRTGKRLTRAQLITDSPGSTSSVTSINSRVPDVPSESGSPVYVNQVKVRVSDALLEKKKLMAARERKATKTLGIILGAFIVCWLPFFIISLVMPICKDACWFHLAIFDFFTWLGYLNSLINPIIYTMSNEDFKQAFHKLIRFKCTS
Description: Antagonist activity at 5-HT1B (unknown origin)
Data set [6] is described as follows: in vivo. Conditions: rat, iv, 5 mg/kg.
Description: Clearance in rat at 5 mg/kg, iv
Data set [7] can be described thus: in vivo. Conditions: dog, iv, 5 mg/kg.
Description: Clearance in dog at 5 mg/kg, iv
Data set [8] is described as follows: in vivo. The following applies: rat, iv, 5 mg/kg. This is another data set of the same source.
Description: Volume of distribution at steady state in rat at 5 mg/kg, iv
A short description of data set [9]: in vivo. The following applies: dog, iv, 5 mg/kg. The source holds these as a separate data set.
Description: Volume of distribution at steady state in dog at 5 mg/kg, iv
Data set [10] can be described thus: in vivo. Conditions: rat, iv, 5 mg/kg. This is another data set of the same source.
Description: Half life in rat at 5 mg/kg, iv
Data set [11] can be described thus: in vivo. Conditions: dog, iv, 5 mg/kg. This is another data set of the same source.
Description: Half life in dog at 5 mg/kg, iv
Data set [12] can be described thus: in vivo. Conditions: rat, po, 5 mg/kg.
Description: Cmax in rat at 5 mg/kg, po
Data set [13] is described as follows: in vivo. Conditions: dog, po, 5 mg/kg.
Description: Cmax in dog at 5 mg/kg, po
Data set [14] is described as follows: in vivo. The following applies: rat, po, 5 mg/kg. This is another data set of the same source.
Description: AUClast in rat at 5 mg/kg, po
Data set [15] can be described thus: in vivo. Conditions: dog, po, 5 mg/kg. The source holds these as a separate data set.
Description: AUClast in dog at 5 mg/kg, po
Data set [16] is described as follows: in vivo. The following applies: rat, po, 5 mg/kg. The source holds these as a separate data set.
Description: Oral bioavailability in rat at 5 mg/kg
A short description of data set [17]: in vivo. Conditions: dog, po, 5 mg/kg. This is another data set of the same source.
Description: Oral bioavailability in dog at 5 mg/kg
Data set [18] is described as follows: in vivo. The following applies: Sprague-Dawley, rat, plasma, po, 3 mg/kg.
Description: Drug concentration in Sprague-Dawley rat plasma at 3 mg/kg, po administered as single dose and stimulated with ACTH for 1 hr measured after 0.5 hr
A short description of data set [19]: in vivo. The following applies: Sprague-Dawley, rat, plasma, po, 30 mg/kg.
Description: Drug concentration in Sprague-Dawley rat plasma at 30 mg/kg, po administered as single dose and stimulated with ACTH for 1 hr measured after 0.5 hr
Data set [20] in a line: in vivo. Conditions: Sprague-Dawley, rat, plasma, po, 3 mg/kg. This is another data set of the same source.
Description: Drug concentration in Sprague-Dawley rat plasma at 3 mg/kg, po administered as single dose and stimulated with ACTH for 1 hr measured after 1.5 hrs
Data set [21] in a line: in vivo. Conditions: Sprague-Dawley, rat, plasma, po, 30 mg/kg. This is another data set of the same source.
Description: Drug concentration in Sprague-Dawley rat plasma at 30 mg/kg, po administered as single dose and stimulated with ACTH for 1 hr measured after 1.5 hrs
Data set [22] is described as follows: in vivo. Conditions: Sprague-Dawley, rat, plasma, po, 3 mg/kg. This is another data set of the same source.
Description: Drug concentration in Sprague-Dawley rat plasma at 3 mg/kg, po administered as single dose and stimulated with ACTH for 4 hrs measured after 0.5 hrs
The nature of data set [23]: in vivo. The following applies: Sprague-Dawley, rat, plasma, po, 30 mg/kg. This is another data set of the same source.
Description: Drug concentration in Sprague-Dawley rat plasma at 30 mg/kg, po administered as single dose and stimulated with ACTH for 4 hrs measured after 0.5 hrs
Data set [24] can be described thus: in vivo. Conditions: Sprague-Dawley, rat, plasma, po, 3 mg/kg. This is another data set of the same source.
Description: Drug concentration in Sprague-Dawley rat plasma at 3 mg/kg, po administered as single dose and stimulated with ACTH for 4 hrs measured after 1.5 hrs
A short description of data set [25]: in vivo. The following applies: Sprague-Dawley, rat, plasma, po, 30 mg/kg. The source holds these as a separate data set.
Description: Drug concentration in Sprague-Dawley rat plasma at 30 mg/kg, po administered as single dose and stimulated with ACTH for 4 hrs measured after 1.5 hrs
Data set [26] is described as follows: in vivo. Conditions: Sprague-Dawley, rat, plasma, po, 3 mg/kg. The source holds these as a separate data set.
Description: Drug concentration in Sprague-Dawley rat plasma at 3 mg/kg, po administered as single dose and stimulated with ACTH for 24 hrs measured after 0.5 hrs
Data set [27] in a line: in vivo. The following applies: Sprague-Dawley, rat, plasma, po, 30 mg/kg. This is another data set of the same source.
Description: Drug concentration in Sprague-Dawley rat plasma at 30 mg/kg, po administered as single dose and stimulated with ACTH for 24 hrs measured after 0.5 hrs
A short description of data set [28]: in vivo. Conditions: Sprague-Dawley, rat, plasma, po, 30 mg/kg. The source holds these as a separate data set.
Description: Drug concentration in Sprague-Dawley rat plasma at 30 mg/kg, po administered as single dose and stimulated with ACTH for 24 hrs measured after 1.5 hrs
Data set [29] can be described thus: in vivo. Conditions: Sprague-Dawley, rat, plasma, po, 30 mg/kg. This is another data set of the same source.
Description: Drug concentration in Sprague-Dawley rat plasma at 30 mg/kg, po administered as single dose and stimulated with ACTH for 48 hrs measured after 0.5 hrs
A short description of data set [30]: in vitro. The following applies: human, liver microsomes. On the technique in general: Liver microsomes are vesicles of endoplasmic reticulum, rich in cytochrome P450 enzymes.
Description: Stability in human liver microsomes assessed as half life
Data set [31] is described as follows: in vitro. The following applies: rat, liver microsomes.
Description: Stability in rat liver microsomes assessed as half life
The target of the next data set is L-type calcium channel (Homo sapiens, UniProt O60840+Q01668+Q13698+Q13936). Put plainly: in vitro.
Data set [32] is described as follows: in vitro. Conditions: dog, MDCK.
Description: Apparent permeability in MDCK cells
The next data set has as its system MDR1. In words: in vitro. Conditions: dog, MDCK-MDR1.
Data set [33] in a line: in vitro. Conditions: human, plasma.
Description: Plasma protein binding in human at 1 uM
Data set [34] can be described thus: in vitro. The following applies: rat, plasma.
Description: Plasma protein binding in rat at 1 uM
A short description of data set [35]: in vitro. Conditions: dog, plasma.
Description: Plasma protein binding in dog at 1 uM
Data set [36] is described as follows: in vivo. Conditions: rat, po, 10 mg/kg. The source holds these as a separate data set.
Description: Half life in rat at 10 mg/kg, po
Data set [37] is described as follows: in vivo. The following applies: rat, po, 10 mg/kg. The source holds these as a separate data set.
Description: AUClast in rat at 10 mg/kg, po
Data set [38] in a line: in vivo. The following applies: rat, po, 10 mg/kg. This is another data set of the same source.

The record followed here is ChEMBL document CHEMBL5344485, “Discovery of CRN04894: A Novel Potent Selective MC2R Antagonist” (ACS Med Chem Lett, 2024).

Sequence of Cytochrome P450 2C9 (P11712 whole entry): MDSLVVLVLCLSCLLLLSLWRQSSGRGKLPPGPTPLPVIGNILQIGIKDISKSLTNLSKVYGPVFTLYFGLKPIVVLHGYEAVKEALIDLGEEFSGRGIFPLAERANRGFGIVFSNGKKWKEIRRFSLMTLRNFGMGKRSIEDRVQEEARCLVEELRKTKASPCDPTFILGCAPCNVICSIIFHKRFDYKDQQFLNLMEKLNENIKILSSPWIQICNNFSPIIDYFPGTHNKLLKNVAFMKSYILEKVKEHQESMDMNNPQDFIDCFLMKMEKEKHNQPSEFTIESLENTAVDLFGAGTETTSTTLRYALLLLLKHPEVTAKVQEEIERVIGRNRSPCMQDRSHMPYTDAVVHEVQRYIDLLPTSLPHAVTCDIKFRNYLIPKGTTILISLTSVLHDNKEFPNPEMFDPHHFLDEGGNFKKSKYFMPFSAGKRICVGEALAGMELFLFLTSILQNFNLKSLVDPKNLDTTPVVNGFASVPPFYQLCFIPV
Sequence of Melanocortin receptor 4 (P32245 whole entry): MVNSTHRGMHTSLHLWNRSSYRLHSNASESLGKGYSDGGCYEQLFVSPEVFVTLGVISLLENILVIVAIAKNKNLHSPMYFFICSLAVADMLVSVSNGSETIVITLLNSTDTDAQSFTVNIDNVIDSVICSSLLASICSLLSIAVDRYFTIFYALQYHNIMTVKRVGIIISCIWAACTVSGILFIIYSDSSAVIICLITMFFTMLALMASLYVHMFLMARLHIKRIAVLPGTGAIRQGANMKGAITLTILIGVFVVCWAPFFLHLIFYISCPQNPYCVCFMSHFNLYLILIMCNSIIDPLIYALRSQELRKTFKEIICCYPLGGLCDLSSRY
Sequence of Melanocortin receptor 3 (P41968 whole entry): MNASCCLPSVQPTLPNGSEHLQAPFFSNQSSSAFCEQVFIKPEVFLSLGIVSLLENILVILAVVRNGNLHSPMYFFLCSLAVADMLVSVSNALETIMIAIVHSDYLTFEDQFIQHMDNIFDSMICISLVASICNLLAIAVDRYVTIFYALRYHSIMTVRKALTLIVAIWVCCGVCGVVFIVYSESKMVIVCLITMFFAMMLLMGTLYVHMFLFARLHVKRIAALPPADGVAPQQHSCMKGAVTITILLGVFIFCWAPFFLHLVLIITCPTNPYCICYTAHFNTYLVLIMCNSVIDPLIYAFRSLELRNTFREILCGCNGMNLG
Sequence of Cytochrome P450 2D6 (P10635 whole entry): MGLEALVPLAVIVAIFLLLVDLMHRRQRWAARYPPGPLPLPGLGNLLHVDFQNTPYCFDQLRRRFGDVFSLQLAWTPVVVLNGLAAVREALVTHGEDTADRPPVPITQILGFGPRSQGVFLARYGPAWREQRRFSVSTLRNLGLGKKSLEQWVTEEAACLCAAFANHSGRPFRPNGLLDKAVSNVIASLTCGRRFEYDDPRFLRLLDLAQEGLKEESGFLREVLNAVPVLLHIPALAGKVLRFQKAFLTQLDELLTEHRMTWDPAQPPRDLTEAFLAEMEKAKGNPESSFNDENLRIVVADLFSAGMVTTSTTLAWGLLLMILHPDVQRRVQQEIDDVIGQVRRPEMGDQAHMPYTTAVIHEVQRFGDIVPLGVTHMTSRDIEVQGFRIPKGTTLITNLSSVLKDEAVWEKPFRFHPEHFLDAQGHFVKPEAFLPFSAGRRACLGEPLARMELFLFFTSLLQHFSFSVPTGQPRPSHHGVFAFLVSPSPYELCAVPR
Sequence of Cytochrome P450 2C19 (P33261 whole entry): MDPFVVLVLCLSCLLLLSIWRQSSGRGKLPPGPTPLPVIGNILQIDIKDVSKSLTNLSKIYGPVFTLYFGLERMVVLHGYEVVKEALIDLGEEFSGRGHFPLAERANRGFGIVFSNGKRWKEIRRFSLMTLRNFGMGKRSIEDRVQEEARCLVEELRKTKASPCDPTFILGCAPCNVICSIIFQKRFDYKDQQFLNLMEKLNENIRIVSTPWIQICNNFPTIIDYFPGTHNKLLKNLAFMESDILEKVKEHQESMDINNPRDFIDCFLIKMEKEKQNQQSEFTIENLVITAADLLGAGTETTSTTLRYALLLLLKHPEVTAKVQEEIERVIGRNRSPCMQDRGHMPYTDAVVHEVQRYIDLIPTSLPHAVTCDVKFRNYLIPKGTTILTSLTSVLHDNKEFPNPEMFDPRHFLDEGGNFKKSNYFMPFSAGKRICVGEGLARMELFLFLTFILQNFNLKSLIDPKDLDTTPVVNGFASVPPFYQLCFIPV
Sequence of Cytochrome P450 3A4 (P08684 whole entry): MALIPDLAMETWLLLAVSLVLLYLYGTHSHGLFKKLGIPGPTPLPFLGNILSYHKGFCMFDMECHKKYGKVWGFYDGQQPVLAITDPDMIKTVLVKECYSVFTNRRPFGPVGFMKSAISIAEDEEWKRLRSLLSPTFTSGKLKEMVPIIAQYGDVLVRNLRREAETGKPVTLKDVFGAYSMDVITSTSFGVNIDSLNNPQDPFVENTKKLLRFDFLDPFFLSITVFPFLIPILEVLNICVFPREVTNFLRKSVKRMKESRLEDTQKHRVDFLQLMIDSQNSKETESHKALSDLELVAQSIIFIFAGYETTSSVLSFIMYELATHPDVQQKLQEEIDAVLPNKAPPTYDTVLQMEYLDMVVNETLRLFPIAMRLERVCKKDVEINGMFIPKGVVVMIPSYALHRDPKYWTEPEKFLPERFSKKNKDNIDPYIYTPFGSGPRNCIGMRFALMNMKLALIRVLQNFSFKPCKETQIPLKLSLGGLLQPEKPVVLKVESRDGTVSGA
Sequence of Melanocortin receptor 5 (P33032 whole entry): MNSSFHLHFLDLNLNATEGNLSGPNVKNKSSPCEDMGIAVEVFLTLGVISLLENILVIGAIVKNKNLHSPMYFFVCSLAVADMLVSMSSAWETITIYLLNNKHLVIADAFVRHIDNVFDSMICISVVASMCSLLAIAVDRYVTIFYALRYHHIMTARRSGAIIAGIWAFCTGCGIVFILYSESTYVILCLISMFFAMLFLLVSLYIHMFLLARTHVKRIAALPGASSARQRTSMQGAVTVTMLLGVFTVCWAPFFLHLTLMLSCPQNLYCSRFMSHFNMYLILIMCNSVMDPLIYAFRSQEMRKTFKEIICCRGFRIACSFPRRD
Description for Cytochrome P450 2C19: Inhibition of CYP2C19 (unknown origin)
Description for Cytochrome P450 2C9: Inhibition of CYP2C9 (unknown origin)
Description for Cytochrome P450 2D6: Time dependent inhibition of CYP2D6 (unknown origin)
Description for Cytochrome P450 3A4: Time dependent inhibition of CYP3A4 (unknown origin)
Description for L-type calcium channel: Inhibition of L-type calcium channel (unknown origin) at 10 uM relative to control
Description for MDR1: Efflux ratio of apparent permeability across basolateral to apical over apical to basolateral in MDCK-MDR1 cells

The compound `CCOc1ccccc1-c1ccc(N2CCN(C(=O)c3ccc(Cl)cc3Cl)C[C@H]2CC)c(C(=O)NCCN)c1` showed a Ki in [1] of 4.8 nM. Besides, the Cmax in the data set “in vivo [2]” came to 2.8 nM. The compound also showed an AUC(0-t) in “in vivo [3]” of 0.0081 µM·h.
Regarding `CCOc1ncccc1-c1ccc(N2CCN(C(=O)C3(C(F)(F)F)CCC3)C[C@H]2CC)c(C(=O)N[C@@H]2CN3CCC2CC3)n1`, in data set [1], the affinity corresponds to a Ki of 4.4 nM.
Still for that read-out and setting: next, `CCOc1ncccc1-c1ccc(N2CCN(C(=O)c3ccc(Cl)cc3C(F)(F)F)C[C@H]2CC)c(C(=O)NCCN(C)C)c1F`: 0.9 nM.
Still for that read-out and setting: next, `CCOc1ccccc1-c1ccc(N2CCN(C(=O)c3ccc(Cl)cc3C(F)(F)F)C[C@H]2CC)c(C(=O)NCCN)c1`: 1.6 nM.
Same read-out and setting: next, `CC[C@@H]1CN(C(=O)c2ccc(C(F)(F)F)cc2Cl)CCN1c1ccc(-c2cccc(F)c2Cl)cc1C(=O)NCCN`: 36 nM; `CCOc1ncccc1-c1ccc(N2CCN(C(=O)c3ccc(Cl)cc3C(F)(F)F)C[C@H]2CC)c(C(=O)NCCN)c1`: 1.1 nM.
With `CCOc1ccccc1-c1ccc(N2CCN(C(=O)C3(C(F)(F)F)CCC3)C[C@H]2CC)c(C(=O)N[C@@H]2CN3CCC2CC3)n1` [ATUMELNANT], the affinity in data set [1], expressed as Ki, was 2.1 nM. Further, the IC50 in data set [4] was more than 10000 nM; against Melanocortin receptor 3, more than 10000 nM; against Melanocortin receptor 4, more than 10000 nM; at Melanocortin receptor 5, more than 10000 nM; in data set [5], 750 nM; against Cytochrome P450 2C9, more than 10000 nM. Moreover, the IC50 at Cytochrome P450 2C19, against Cytochrome P450 2D6 and against Cytochrome P450 3A4 was more than 10000 nM throughout. Besides, the figures for the clearance in “in vivo [6]” and in the data set “in vivo [7]” were 24.5 mL/min/kg and 14.2 mL/min/kg, respectively. For the same compound, the Vd in “in vivo [8]” is 3.19 L/kg; in the data set “in vivo [9]”, 10.5 L/kg. Further, the half-life in “in vivo [10]” was 2.73 h; in the data set “in vivo [11]”, 9.55 h; in “in vitro [30]”, 3.85 h; in “in vitro [31]” it was 3.85 h. Also, the values for the Cmax in “in vivo [12]” and in the data set “in vivo [13]” were 1220 nM and 650 nM, respectively. Further, the AUC(0-t) in “in vivo [14]” came out at 5.2 µM·h; in the data set “in vivo [15]”, 4.97 µM·h. In addition, the bioavailability is 47% in “in vivo [16]” and 100% in the data set “in vivo [17]”. The concentration at 0.5 h was found to be 110 ng/mL in “in vivo [18]”; 1140 ng/mL in the data set “in vivo [19]”; 127 ng/mL in “in vivo [22]”; 1460 ng/mL in “in vivo [23]”; 0.927 ng/mL in the data set “in vivo [26]”; 20 ng/mL in “in vivo [27]”. For the same compound, the concentration at 0.5 h in the data set “in vivo [29]” was 0.88 ng/mL. In addition, the concentration at […] came out at 93.9 ng/mL in the data set “in vivo [20]”; 1530 ng/mL in the data set “in vivo [21]”; 87.5 ng/mL in the data set “in vivo [24]”; 1260 ng/mL in “in vivo [25]”; 14.1 ng/mL in “in vivo [28]”. Further, the inhibition at 10 µM on L-type calcium channel was more than 70%. The Papp in the data set “in vitro [32]” came out at 1.9 ×10⁻⁶ cm/s. Moreover, the efflux ratio in the data set with MDR1 came out at 95. For the same compound, the fraction unbound at 1 µM is 0.014 in the data set “in vitro [33]”, 0.026 in the data set “in vitro [34]” and 0.132 in “in vitro [35]”.
The compound `CCOc1ncccc1-c1ccc(N2CCN(C(=O)c3ccc(Cl)cc3C(F)(F)F)C[C@H]2CC)c(C(=O)NCCN(C)C)n1` registered a Ki in data set [1] of 0.39 nM. For the same compound, the figures for the half-life in “in vivo [36]”, in “in vitro [30]” and in “in vitro [31]” were 1.6 h, 0.383 h and 0.35 h, respectively. The AUC(0-t) in “in vivo [37]” is 0.349 µM·h. Further, the bioavailability in the data set “in vivo [38]” was 8%.
`CC[C@@H]1CN(C(=O)c2ccc(C(F)(F)F)cc2Cl)CCN1c1ccc(-c2ccccc2Cl)cc1C(=O)NCCN` came in with a Ki in data set [1] of 21 nM.
Turning to `CCOc1ccccc1-c1ccc(N2CCN(C(=O)C3(C(F)(F)F)CCC3)C[C@H]2CC)c(C(=O)N[C@@H]2CCN(C)C2)n1`, in data set [1], the Ki amounted to 1.3 nM. The half-life in “in vitro [30]” is 1.93 h; in “in vitro [31]” it was 3.85 h.
On to `CCOc1ncccc1-c1ccc(N2CCN(C(=O)c3ccc(Cl)cc3C(F)(F)F)C[C@H]2CC)c(C(=O)NCCN(C)C)c1`, for which the Ki in data set [1] stood at 1.5 nM.
`CCOc1ncccc1-c1ccc(N2CCN(C(=O)c3ccc(Cl)cc3C(F)(F)F)C[C@H]2CC)c(C(=O)N[C@@H]2CCN(C)C2)n1` registered a Ki in data set [1] of 0.3 nM. The half-life in “in vivo [36]” is 2.2 h; in the data set “in vitro [30]”, 0.583 h; in the data set “in vitro [31]” it was 0.717 h. In addition, the AUC(0-t) in the data set “in vivo [37]” amounted to 1.44 µM·h. The compound further yielded a bioavailability in “in vivo [38]” of 17%.
Compound `CC[C@@H]1CN(C(=O)c2ccc(C(F)(F)F)cc2Cl)CCN1c1ccc(-c2ccccc2C#N)cc1C(=O)NCCN` showed a Ki in data set [1] of 25 nM.
As to `CC[C@@H]1CN(C(=O)c2ccc(C(F)(F)F)cc2Cl)CCN1c1ccc(-c2ccccc2F)cc1C(=O)NCCN`, affinity in data set [1] was put at a Ki of 47 nM.
Compound `CCOc1ncccc1-c1ccc(N2CCN(C(=O)C34CCC(C(F)(F)F)(CC3)CC4)C[C@H]2CC)c(C(=O)N[C@@H]2CCN(C)C2)n1` returned a Ki in [1] of 0.4 nM. In addition, the half-life in “in vitro [30]” was determined as 1.15 h; in the data set “in vitro [31]”, 0.533 h.
With `CCOc1ccccc1-c1ccc(N2CCN(C(=O)c3ccc(C(F)(F)F)cc3Cl)C[C@H]2CC)c(C(=O)NCCN)c1`, the Ki in data set [1] was found to be 2 nM.
Regarding `CCOc1ncccc1-c1ccc(N2CCN(C(=O)C3(C(F)(F)F)CCCC3)C[C@H]2CC)c(C(=O)N[C@@H]2CCN(C)C2)n1`, the Ki in data set [1] was 0.63 nM. The half-life in the data set “in vitro [30]” was 0.383 h; in “in vitro [31]”, 3.85 h.
The compound `CCOc1ncccc1-c1ccc(N2CCN(C(=O)c3ccc(Cl)cc3C(F)(F)F)C[C@H]2CC)c(C(=O)N[C@@H]2CCNC2)n1` yielded a Ki in [1] of 0.32 nM. Also, the half-life is 4 h in the data set “in vivo [36]”, 3.85 h in “in vitro [30]” and 5.78 h in “in vitro [31]”. The same compound showed an AUC(0-t) in the data set “in vivo [37]” of 0.279 µM·h.
On to `CCOc1ncccc1-c1ccc(N2CCN(C(=O)C3(C(F)(F)F)CCC3)C[C@H]2CC)c(C(=O)N[C@@H]2CCN(C)C2)n1`, for which affinity in [1] was put at a Ki of 3.7 nM. In addition, the half-life in the data set “in vitro [30]” was 1.28 h; in “in vitro [31]”, more than 11.6 h.
`CCOc1ncccc1-c1ccc(N2CCN(C(=O)c3ccc(Cl)cc3C(F)(F)F)C[C@H]2CC)c(C(=O)NCCNC)c1` showed a Ki in [1] of 0.96 nM.

The Ki is a dissociation constant, usually derived from enzyme kinetics or from competition with a known ligand. A lower Ki goes with higher affinity. As a reminder, the Cmax is the maximum level reached in the sampled fluid or tissue. The term AUC(0-t) denotes exposure summed from dosing to a finite time, without extrapolation to infinity. A low value points to less exposure. In general, IC50 refers to the concentration that gives 50% inhibition. High values mean lower potency, low ones higher potency. Broadly, the clearance is the volume of plasma or blood freed of the substance per unit of time. A low value points to inefficient removal. A word on the Vd: it is the apparent volume that relates the amount in the body to the concentration in plasma or blood. The half-life is how long it takes for the measured level to halve. A low value points to fast loss. What is called bioavailability is dose-corrected exposure relative to a reference, in per cent. The inhibition is the change of the read-out against control, counted positive when it falls. Broadly, the Papp is the rate of passage across a membrane or cell layer, normalised by area and donor concentration. The term efflux ratio denotes the permeability from basolateral to apical divided by that in the opposite direction, in the common usage. What is called fraction unbound is free concentration divided by total concentration. Lower therefore signals extensive binding.
